From PubChem BioAssay (NCI)
Several values for one entry are separate records, joined by “and”; a condition that tells them apart may be missing. Equal values may be shown once.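 Five compound concentrations were applied to cells in 96-well plates for 48 hours; endpoints were derived by simple linear interpolation of the resulting dose-response curve. GI50 = concentration required for 50% inhibition of growth. TGI is the concentration that stops growth completely.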

Assays:
Experiment in all cases: NCI-60 cell line screen, 48 h
[1] = test system: UO-31 renal
[2] = test system: A549 NSCLC
[3] = test system: SN12C renal
[4] = test system: HCT-15 colon
[5] = test system: 786-0 renal
[6] = test system: DU-145 prostate
[7] = test system: HCT-116 colon
[8] = test system: COLO 205 colon
[9] = test system: NCI-H522 lung
[10] = test system: SW-620 colon

Structure (SMILES) | GI50 [1] [µM] | TGI [1] | GI50 [2] [µM] | TGI [2] | GI50 [3] [µM] | TGI [3] | GI50 [4] [µM] | TGI [4] | GI50 [5] [µM] | TGI [5] | GI50 [6] [µM] | TGI [6] | GI50 [7] [µM] | TGI [7] | GI50 [8] [µM] | TGI [8] | GI50 [9] [µM] | TGI [9] | GI50 [10] [µM] | TGI [10]
Cc1cc(Cl)cc(Cc2cc(Cl)cc(C)c2O)c1O | 2.06 | 10.6 µM | 2.91 | 11.1 µM | 2.27 | 9.7 µM | 3.06 | 11.3 µM | 2.48 | 7.76 µM | 3.47 | 17 µM | 2.13 | 5.54 µM | 5.72 | 18.8 µM | 1.76 | 6.65 µM | – | –
Cc1ccc(OCC2OC(n3cnc4c(Br)nc(Br)nc43)CC2Oc2ccc(C)cc2)cc1 (stereo not given) | 11.9 | 22.3 µM and 28.4 µM | – | 30 µM and > 41.9 µM | 9.93 | 22.9 µM and 14.2 µM | 1.45 | 3.24 µM and 4.73 µM | 1.57 | 3.48 µM and 9.92 µM | 13.1 | 23.8 µM and 5.88 µM | 5.29 | 14.5 µM and 3.6 µM | 11.4 | 25.3 µM and 13.1 µM | 1.65 | 2.8 µM and 3.27 µM | 3.02 | 10.1 µM and 12.3 µM
COC(=O)C(=O)C(C(=O)C(=O)Nc1cc(C)ccc1C)c1nc2ccc(C(=O)c3ccccc3)cc2[nH]c1=O (stereo not given) | – | > 100 µM | – | > 100 µM | – | > 100 µM | – | > 100 µM | – | > 100 µM | – | – | – | > 100 µM | – | > 100 µM | – | > 100 µM | – | > 100 µM
CCOC(=O)C(C(O)c1ccc([N+](=O)[O-])cc1)P(=O)(OCC)OCC (stereo not given) | – | – | – | > 100 µM | – | > 100 µM | – | > 100 µM | – | > 100 µM | – | – | – | > 100 µM | – | – | – | > 100 µM | – | > 100 µM
CCc1cccc(C)c1NC(=S)NC(=O)c1ccccc1C(=O)NC(=S)Nc1c(C)cccc1CC | – | > 100 µM | – | > 100 µM | – | > 100 µM | – | > 100 µM | – | > 100 µM | – | – | – | > 100 µM | – | > 100 µM | – | 35.2 µM | – | > 100 µM
[O-]c1c2c(nn1-c1ccc(Cl)cc1)c1ccccc1c[n+]2Cc1ccccc1 | – | > 100 µM | – | > 100 µM | – | > 100 µM | – | – | – | > 100 µM | – | – | – | > 100 µM | – | > 100 µM | – | > 100 µM | – | > 100 µM
CCOCc1cc(=O)c2c(OC)cc3c(c2o1)CCC(C)(C)O3 | – | > 100 µM | – | > 100 µM | – | > 100 µM | – | > 100 µM | – | > 100 µM | – | – | – | > 100 µM | – | – | – | > 100 µM | – | > 100 µM
COc1cnc2c(c1)C(=O)c1c-2n(CCCN2CCNCC2)c(=O)c2cc([N+](=O)[O-])ccc12 | 0.249 | 1.7 µM | 0.0699 | 1.5 µM | – | – | 0.194 | 1.54 µM | 0.209 | 1.16 µM | 0.278 | 1.23 µM | 0.096 | 1.78 µM | 0.0617 | 1.79 µM | 0.506 | 2.03 µM | – | –
C/C(=N\NC(=O)CC(=O)N(C(=O)c1ccc(Cl)cc1)c1ccc(C)cc1)c1ccccc1O | – | > 100 µM | – | > 100 µM | – | > 100 µM | – | > 100 µM | – | > 100 µM | – | – | – | > 100 µM | – | > 100 µM | – | > 100 µM | – | > 100 µM
c1ccc(N/N=C2\NN=C(c3ccccc3)CS2)cc1 | – | 32.8 µM | – | 22.2 µM | – | – | – | 20.9 µM | – | 33.6 µM | – | – | – | 15.2 µM | – | – | – | 10.8 µM | – | 29.9 µM
